# Measurements from BindingDB's records for doi:10.1016/j.ejmech.2013.06.030 (National Institute On Drug Abuse and The National Institute …, 2013).
# pKi: −log10 of the molar value.
# Target: Delta-type opioid receptor (Homo sapiens, UniProt P41143)
# Assay: Displacement of [3H]DADLE from human delta opioid receptor expressed in CHO cells after 2 hrs by liquid scintillation counting
# Chain of Delta-type opioid receptor (P41143 whole entry): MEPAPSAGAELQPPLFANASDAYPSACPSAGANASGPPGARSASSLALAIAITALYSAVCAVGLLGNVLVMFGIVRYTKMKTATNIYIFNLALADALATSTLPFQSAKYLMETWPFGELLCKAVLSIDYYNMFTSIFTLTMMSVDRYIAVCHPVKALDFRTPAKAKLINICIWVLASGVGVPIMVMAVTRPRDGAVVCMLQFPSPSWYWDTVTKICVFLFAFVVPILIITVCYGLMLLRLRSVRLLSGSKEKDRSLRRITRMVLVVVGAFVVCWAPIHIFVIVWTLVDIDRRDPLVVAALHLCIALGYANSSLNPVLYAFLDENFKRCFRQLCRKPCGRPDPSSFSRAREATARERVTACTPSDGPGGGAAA
row,Compound,pKi
1,C[C@H]1C[C@H]2C[C@](c3cccc(O)c3)(CCN2C)C1,6.14
2,CN1CC[C@]2(c3cccc(O)c3)C[C@@H](c3ccccc3)C[C@H]1C2,6.23
3,C[C@H]1CC[C@@]2(c3cccc(O)c3)CCN(C)[C@@H]1C2,6.86
4,Oc1cccc([C@@]23CCN(CCc4ccccc4)[C@H](C[C@@H](O)C2)C3)c1,6.06
5,C[C@H]1CC[C@@]2(c3cccc(O)c3)CCN(CCc3ccccc3)[C@@H]1C2,6.90
6,Oc1cccc([C@]23CCN(CCc4ccccc4)[C@H](C2)[C@H]2CCCC[C@@H]2C3)c1,6.99
7,Oc1cccc([C@@]23CCN(CCc4ccccc4)[C@@H](C[C@H](c4ccccc4)C2)C3)c1,6.50
8,C[C@H]1C[C@H]2C[C@](c3cccc(O)c3)(CCN2CCc2ccccc2)C1,6.59
